Values of other authors as cited in PMC2747598 (Journal of the American Chemical Society, 2009).

System: HeLa cells
Conditions: unconjugated complexes

Compound	Mode of cellular uptake
[Ru+2].c1ccc(-c2ccccn2)nc1.c1ccc(-c2ccccn2)nc1.c1ccc2nc3c4cccnc4c4ncccc4c3nc2c1 [Ru(bpy)2dppz^2+]	enter by passive diffusion and do not exhibit punctate staining
Ru(phen)2dppz^2+	enter by passive diffusion and do not exhibit punctate staining
Ru(phen)(bpy′)(dppz)^2+	enter by passive diffusion and do not exhibit punctate staining
